Broadly, the inhibition is the change of the read-out against control, counted positive when it falls.

Common to all, as to assay: Methyl transferase scintillation proximity assay
What all share (type): biochemical
Holding throughout (conditions): average of two measurements; for inhibition at 10 µM: read-out: MTases Inhibition (%)
(Scintillation proximity formats need no separation of bound from free tracer.)

The target in one assay is T1, DNMT1 (Homo sapiens, UniProt P26358).
T1 construct: purchased DiscoverX BROMOscan (bromodomains); SGC in-house methyltransferase panel
T1 sequence (P26358 whole entry): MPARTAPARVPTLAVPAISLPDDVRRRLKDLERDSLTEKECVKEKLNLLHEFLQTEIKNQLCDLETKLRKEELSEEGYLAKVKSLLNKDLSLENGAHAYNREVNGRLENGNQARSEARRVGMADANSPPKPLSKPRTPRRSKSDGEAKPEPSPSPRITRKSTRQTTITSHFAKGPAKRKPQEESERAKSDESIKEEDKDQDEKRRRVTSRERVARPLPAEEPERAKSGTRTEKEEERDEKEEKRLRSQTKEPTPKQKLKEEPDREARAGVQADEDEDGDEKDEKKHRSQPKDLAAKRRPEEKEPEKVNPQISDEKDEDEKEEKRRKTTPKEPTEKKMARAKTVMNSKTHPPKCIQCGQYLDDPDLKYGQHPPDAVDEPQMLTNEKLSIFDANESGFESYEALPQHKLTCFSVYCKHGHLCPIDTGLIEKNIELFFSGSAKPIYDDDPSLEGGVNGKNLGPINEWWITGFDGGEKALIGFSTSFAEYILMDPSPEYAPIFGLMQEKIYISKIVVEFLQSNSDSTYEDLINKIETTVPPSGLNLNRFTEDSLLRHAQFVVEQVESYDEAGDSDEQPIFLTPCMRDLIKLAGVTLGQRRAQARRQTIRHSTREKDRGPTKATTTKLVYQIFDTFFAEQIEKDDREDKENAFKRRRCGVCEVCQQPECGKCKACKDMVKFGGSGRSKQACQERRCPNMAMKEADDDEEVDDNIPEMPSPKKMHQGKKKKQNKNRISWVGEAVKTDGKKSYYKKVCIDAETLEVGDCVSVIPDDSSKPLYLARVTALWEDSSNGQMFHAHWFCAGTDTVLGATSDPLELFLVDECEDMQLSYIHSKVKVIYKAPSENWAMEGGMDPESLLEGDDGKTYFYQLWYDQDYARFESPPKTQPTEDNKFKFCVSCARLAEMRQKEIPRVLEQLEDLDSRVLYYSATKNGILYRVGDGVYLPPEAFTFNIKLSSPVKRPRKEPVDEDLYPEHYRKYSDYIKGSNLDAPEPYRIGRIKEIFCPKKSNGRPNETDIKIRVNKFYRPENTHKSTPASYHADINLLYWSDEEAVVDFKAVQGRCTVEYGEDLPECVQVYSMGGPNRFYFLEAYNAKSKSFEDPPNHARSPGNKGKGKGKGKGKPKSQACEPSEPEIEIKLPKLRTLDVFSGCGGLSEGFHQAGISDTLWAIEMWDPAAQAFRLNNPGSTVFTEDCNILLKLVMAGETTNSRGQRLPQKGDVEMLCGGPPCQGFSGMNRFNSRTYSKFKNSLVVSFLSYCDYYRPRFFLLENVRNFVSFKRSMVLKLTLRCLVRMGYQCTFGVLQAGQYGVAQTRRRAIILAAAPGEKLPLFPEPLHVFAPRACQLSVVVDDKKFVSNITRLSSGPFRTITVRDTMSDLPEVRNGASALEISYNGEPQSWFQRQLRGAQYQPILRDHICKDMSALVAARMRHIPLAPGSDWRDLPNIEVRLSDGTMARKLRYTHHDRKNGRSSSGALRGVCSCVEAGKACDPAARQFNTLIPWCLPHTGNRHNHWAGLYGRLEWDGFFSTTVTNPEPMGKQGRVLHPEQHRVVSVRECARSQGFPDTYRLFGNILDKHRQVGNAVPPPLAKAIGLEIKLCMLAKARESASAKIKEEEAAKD
The method, then:
(§1) Assays measuring lysine and arginine methyl transferase activity have been described in Scheer et al.. A radioactivity-based scintillation proximity assay was used to monitor incorporation of a tritium-labeled methyl group into the biotinylated substrate of the methyl transferase. A 10-μl reaction containing ^3H-SAM and substrate at concentrations close to the apparent Km values for each enzyme was prepared. The reactions were quenched with 10 μl of 7.5 M guanidine hydrochloride; 180 μl of 20 mM Tris buffer (pH 8.0) were added; and the mixture was transferred to a 96-well FlashPlate and incubated for 1 h. The counts per minute (CPM) was measured on a TopCount plate reader. The CPM in the absence of compound or enzyme was defined as 100% activity and background (0%), respectively, for each dataset.

Another assay has as its target T2, BCDIN3D (Homo sapiens, UniProt Q7Z5W3).
T2 construct: purchased DiscoverX BROMOscan (bromodomains); SGC in-house methyltransferase panel
T2 sequence (Q7Z5W3 1-292): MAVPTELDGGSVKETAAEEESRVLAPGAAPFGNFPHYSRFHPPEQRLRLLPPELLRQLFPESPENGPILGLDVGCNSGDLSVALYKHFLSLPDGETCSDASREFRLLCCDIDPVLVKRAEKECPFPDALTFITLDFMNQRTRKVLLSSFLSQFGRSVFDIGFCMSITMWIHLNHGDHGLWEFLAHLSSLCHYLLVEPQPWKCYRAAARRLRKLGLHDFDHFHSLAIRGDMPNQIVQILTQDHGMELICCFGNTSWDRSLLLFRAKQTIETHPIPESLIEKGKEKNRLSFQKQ
As for the experimental part: as §1

The target of another assay is T3, PRMT7 (Homo sapiens, UniProt Q9NVM4).
T3 construct: purchased DiscoverX BROMOscan (bromodomains); SGC in-house methyltransferase panel
T3 sequence (Q9NVM4 1-692): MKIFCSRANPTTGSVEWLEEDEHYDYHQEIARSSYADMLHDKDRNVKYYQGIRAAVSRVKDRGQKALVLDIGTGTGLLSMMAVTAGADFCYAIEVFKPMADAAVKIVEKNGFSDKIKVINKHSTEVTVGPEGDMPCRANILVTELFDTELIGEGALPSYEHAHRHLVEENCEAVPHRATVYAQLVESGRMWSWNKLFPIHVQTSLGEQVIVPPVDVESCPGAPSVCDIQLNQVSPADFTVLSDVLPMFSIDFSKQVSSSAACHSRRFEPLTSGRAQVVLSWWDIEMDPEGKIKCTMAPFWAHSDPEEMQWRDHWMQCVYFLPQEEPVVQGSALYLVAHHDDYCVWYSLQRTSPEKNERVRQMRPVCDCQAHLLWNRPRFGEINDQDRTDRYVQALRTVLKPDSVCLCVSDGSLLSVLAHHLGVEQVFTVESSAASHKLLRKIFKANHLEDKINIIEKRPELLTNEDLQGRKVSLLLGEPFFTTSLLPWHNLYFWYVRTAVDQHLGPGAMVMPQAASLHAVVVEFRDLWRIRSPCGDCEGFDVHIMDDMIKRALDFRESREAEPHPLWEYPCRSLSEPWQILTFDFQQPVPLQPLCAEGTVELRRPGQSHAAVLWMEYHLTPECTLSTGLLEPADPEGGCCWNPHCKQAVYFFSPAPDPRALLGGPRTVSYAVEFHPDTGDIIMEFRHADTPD
The method, then: as §1

The next assay deals with T4, SUV420H1 (Homo sapiens, UniProt Q4FZB7).
T4 construct: purchased DiscoverX BROMOscan (bromodomains); SGC in-house methyltransferase panel
As for the experimental part: as §1

The next assay concerns the target T5, NSD3 (Homo sapiens, UniProt Q9BZ95).
T5 construct: purchased DiscoverX BROMOscan (bromodomains); SGC in-house methyltransferase panel
T5 sequence (Q9BZ95 1-1437): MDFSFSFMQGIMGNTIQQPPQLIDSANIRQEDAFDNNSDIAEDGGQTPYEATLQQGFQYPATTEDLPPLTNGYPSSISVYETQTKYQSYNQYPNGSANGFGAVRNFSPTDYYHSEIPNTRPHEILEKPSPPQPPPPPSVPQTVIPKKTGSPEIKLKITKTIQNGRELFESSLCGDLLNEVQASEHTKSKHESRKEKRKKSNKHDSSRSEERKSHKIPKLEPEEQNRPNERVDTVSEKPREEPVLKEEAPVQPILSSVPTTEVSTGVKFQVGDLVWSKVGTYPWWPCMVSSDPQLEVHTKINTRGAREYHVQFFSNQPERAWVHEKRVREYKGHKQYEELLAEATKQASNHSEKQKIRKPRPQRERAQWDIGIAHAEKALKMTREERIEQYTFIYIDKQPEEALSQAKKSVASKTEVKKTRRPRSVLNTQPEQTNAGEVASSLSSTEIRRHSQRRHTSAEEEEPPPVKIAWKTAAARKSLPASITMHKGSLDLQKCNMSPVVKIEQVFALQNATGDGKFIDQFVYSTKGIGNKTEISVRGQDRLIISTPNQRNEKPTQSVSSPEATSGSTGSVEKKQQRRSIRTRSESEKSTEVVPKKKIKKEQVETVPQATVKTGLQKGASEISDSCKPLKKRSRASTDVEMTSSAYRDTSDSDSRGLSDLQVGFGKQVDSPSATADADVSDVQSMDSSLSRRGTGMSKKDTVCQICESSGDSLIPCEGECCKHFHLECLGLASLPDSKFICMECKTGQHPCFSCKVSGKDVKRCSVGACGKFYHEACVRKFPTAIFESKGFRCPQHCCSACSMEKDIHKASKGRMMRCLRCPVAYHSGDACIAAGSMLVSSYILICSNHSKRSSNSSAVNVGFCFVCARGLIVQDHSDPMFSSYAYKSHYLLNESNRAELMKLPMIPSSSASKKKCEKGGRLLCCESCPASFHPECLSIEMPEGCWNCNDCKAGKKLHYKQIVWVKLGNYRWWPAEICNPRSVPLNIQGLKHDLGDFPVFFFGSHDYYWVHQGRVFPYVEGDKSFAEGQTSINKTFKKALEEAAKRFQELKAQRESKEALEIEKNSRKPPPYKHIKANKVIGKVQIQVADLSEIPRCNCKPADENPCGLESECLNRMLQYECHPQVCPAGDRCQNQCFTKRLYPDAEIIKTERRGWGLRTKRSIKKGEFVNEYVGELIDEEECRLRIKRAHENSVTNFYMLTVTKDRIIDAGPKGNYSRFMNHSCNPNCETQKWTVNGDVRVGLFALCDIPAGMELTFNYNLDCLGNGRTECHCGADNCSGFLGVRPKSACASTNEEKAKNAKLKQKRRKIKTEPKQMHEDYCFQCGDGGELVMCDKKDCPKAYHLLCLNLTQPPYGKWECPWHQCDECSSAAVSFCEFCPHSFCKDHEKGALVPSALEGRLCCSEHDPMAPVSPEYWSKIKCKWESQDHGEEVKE
The method, then:
as §1

A further assay addresses T6, SETD2 (Homo sapiens, UniProt Q9BYW2).
T6 construct: purchased DiscoverX BROMOscan (bromodomains); SGC in-house methyltransferase panel
As for the experimental part:
as §1

In another assay the target is T7, SMYD2 (Homo sapiens, UniProt Q9NRG4).
T7 construct: purchased DiscoverX BROMOscan (bromodomains); SGC in-house methyltransferase panel
T7 sequence (Q9NRG4 whole entry): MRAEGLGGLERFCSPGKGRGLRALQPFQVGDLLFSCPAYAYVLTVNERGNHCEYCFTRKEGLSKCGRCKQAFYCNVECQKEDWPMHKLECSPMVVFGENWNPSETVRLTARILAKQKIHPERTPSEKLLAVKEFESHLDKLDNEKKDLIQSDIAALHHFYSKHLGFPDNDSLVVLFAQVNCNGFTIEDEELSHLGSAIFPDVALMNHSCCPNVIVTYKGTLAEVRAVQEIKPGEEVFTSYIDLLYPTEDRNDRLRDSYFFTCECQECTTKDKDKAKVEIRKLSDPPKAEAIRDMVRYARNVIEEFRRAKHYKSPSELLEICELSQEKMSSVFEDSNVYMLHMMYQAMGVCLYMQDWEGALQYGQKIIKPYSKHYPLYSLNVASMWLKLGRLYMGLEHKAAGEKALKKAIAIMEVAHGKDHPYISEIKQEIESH
As for the experimental part:
as §1

T6 sequence (Q9BYW2 whole entry): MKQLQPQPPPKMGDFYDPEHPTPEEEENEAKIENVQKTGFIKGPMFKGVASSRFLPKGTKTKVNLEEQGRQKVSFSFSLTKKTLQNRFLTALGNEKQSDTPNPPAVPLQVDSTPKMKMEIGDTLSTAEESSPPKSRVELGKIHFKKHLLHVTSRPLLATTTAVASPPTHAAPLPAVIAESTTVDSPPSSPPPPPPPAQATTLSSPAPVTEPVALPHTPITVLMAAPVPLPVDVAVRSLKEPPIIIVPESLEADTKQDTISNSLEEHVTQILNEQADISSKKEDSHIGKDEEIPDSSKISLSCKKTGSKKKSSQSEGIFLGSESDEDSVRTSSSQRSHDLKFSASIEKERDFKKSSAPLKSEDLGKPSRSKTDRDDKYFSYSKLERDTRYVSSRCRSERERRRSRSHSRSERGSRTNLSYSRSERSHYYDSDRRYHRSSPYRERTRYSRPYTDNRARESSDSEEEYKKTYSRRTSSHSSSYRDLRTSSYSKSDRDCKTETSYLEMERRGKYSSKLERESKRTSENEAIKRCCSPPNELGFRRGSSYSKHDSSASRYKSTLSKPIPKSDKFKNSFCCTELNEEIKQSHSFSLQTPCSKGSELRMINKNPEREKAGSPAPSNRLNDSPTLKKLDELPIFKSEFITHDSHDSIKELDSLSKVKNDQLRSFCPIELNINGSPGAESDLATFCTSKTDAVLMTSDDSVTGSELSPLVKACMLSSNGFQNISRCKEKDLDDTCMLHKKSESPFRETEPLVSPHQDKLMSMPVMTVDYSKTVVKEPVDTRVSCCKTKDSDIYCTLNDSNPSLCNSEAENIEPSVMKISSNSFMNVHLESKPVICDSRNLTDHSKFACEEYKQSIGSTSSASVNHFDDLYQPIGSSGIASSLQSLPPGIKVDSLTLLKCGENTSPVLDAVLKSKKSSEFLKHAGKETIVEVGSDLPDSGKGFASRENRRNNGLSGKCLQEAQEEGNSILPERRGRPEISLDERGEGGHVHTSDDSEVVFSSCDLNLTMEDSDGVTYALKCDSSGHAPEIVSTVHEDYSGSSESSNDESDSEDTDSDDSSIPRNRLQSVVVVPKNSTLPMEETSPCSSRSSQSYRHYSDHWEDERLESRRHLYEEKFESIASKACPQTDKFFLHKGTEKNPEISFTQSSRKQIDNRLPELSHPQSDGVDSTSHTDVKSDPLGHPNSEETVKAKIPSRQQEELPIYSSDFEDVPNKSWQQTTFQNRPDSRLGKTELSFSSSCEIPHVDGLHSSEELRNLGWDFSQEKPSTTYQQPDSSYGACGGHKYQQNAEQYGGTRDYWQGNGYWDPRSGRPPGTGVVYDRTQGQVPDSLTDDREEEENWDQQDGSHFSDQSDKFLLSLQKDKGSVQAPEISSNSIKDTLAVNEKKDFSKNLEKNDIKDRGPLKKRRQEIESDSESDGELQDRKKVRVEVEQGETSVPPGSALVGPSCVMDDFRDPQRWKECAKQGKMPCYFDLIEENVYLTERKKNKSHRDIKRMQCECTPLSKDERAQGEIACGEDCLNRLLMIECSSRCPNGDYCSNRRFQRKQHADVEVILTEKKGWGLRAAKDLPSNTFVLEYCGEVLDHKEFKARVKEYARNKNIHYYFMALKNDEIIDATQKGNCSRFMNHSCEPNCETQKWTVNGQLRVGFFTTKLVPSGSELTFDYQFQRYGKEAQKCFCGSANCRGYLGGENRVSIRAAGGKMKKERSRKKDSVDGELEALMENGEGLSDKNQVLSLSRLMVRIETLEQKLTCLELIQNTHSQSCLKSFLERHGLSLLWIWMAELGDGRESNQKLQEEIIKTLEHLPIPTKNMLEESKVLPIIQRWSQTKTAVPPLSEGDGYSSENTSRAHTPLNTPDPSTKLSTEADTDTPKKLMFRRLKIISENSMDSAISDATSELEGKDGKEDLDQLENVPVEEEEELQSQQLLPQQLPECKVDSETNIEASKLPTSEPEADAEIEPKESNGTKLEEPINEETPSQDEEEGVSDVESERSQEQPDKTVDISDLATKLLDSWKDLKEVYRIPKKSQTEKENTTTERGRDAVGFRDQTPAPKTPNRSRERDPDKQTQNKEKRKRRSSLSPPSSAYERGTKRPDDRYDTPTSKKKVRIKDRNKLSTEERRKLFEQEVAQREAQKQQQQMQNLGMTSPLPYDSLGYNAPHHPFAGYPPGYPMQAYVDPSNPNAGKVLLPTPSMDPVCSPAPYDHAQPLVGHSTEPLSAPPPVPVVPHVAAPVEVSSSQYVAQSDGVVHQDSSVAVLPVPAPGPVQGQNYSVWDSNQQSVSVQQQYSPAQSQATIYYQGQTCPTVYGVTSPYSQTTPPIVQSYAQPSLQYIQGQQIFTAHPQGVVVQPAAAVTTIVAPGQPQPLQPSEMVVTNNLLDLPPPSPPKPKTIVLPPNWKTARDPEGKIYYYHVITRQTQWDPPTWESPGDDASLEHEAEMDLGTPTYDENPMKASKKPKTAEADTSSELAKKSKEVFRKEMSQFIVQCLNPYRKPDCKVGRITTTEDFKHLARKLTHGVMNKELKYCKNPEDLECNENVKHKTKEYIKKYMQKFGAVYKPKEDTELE

On to `Cc1c(NC(=O)c2cc(C(N)=O)nc3cc(F)ccc23)c(C(F)(F)F)nn1Cc1ccc(C(C)(C)C)cc1` [BAY-588], for which the inhibition at 10 µM was 9% on DNMT1; 16% on BCDIN3D; 13% at PRMT7; -5% at SUV420H1; -2% on NSD3; 0% at SETD2. The inhibition at 10 µM on SMYD2 worked out at 8%.

On to `COc1cc(Cl)c(C(=O)N[C@@H](CN[C@H]2CC[C@@H](N)CC2)Cc2ccc(C#N)cc2)cc1-c1ccc(CN[C@H](C)c2ccc(C)cc2)o1` [BAY-850], for which the inhibition at 10 µM on DNMT1 is 4%; on BCDIN3D, 28%; on PRMT7 it was 3%; on SUV420H1, 5%; at NSD3 it was 14%; at SETD2, 7%. For the same compound, the inhibition at 10 µM at SMYD2 is 19%.

Regarding `Cc1c(NC(=O)c2cc(C(N)=O)nc3cc(F)ccc23)c(C(F)(F)F)nn1Cc1ccc(C#N)cc1` [BAY-876], the inhibition at 10 µM is 4% at DNMT1; 17% at BCDIN3D; 12% at PRMT7; -1% at SUV420H1; 3% on NSD3; -4% at SETD2. Also, the inhibition at 10 µM on SMYD2 was -10%.

On to `CN1C[C@H](Nc2cnn(C)c(=O)c2Br)C[C@H](c2ccccc2)C1` [GSK4027], for which the inhibition at 10 µM on DNMT1 is 3%; on BCDIN3D it was 14%; at PRMT7, 15%; on SUV420H1 it was 8%; on NSD3, 10%; on SETD2, -1%. In addition, the inhibition at 10 µM on SMYD2 was determined as 2%.

Take `COc1ccccc1C(=O)Nc1cc2c(cc1N1CCNC[C@H]1C)n(C)c(=O)n2C` [GSK6853]: the “MTases Inhibition (%)” value on DNMT1 (10µM) is on record as -8%; at BCDIN3D (10µM), 5%; at PRMT7 (10µM), 11%; at SUV420H1 (10µM), 5%; on NSD3 (10µM) it was 7%; on SETD2 (10µM), 1%. In addition, the “MTases Inhibition (%)” value on SMYD2 (10µM) was -3%.

Consider `CO[C@H]1CNC[C@@H](OCC2CCC(F)(F)CC2)[C@@H]1Nc1ncc(-c2cncc(C)c2)c2cc(C)c(=O)[nH]c12` [GSK8814], for which the inhibition at 10 µM was -3% at DNMT1; 7% at BCDIN3D; 11% on PRMT7; -3% at SUV420H1; 13% at NSD3; 7% on SETD2. The inhibition at 10 µM on SMYD2 is -2%.

For `Cc1nnc2c3ccccc3c(N[C@@H](C)[C@H](c3ccccc3)N(C)C)nn12` [L-Moses], the inhibition at 10 µM at DNMT1 turned out to be 3%; at BCDIN3D, 9%; on PRMT7, 8%; at SUV420H1, 4%; on NSD3 it was 5%; on SETD2 it was 11%. Further, on SMYD2, the inhibition at 10 µM was -10%.

Turning to `CN(C)CCCOc1ccc(-c2cc(NCCCn3cccn3)nc(S(C)(=O)=O)n2)cc1` [TP-238], the inhibition at 10 µM was found to be 3% on DNMT1; 4% at BCDIN3D; 9% on PRMT7; 3% on SUV420H1; 15% on NSD3; 19% on SETD2. At SMYD2, the inhibition at 10 µM is -2%.

The values above are taken from PMC6478789, “A chemical toolbox for the study of bromodomains and epigenetic signaling” (Nature Communications, 2019).
